Measured values taken from US6413934B1, “Streptavidin mutants having secondary functional domains” (University of Washington, priority 1998, dated 2002).
Like-named read-outs stand apart in the source and are kept apart here. One block for each molecule: values may come before it.

Experiments:
[1] = molecular target: integrin receptors (on rat aortic endothelial cells); experiment: cell-based or functional assay
[2] = tested on: Rat aortic endothelial cells; experiment: peptide inhibition of endothelial cell adhesion to FN-SA and OSTP-SA; format: cell-based; conditions: for inhibitory effect on cell adhesion: soluble peptide preincubated with cells 15 minutes
Experimental: To confirm that the observed cell adhesion was directly RGD dependent, inhibition studies were conducted with GRGDSP (amino acids 89 to 94 of SEQ ID NO:2), GRGESP (SEQ ID NO:8), and GRADSP (SEQ ID NO:9) peptides.
Synthetic hexapeptides GRGDSP (amino acids 89 to 94 of SEQ ID NO:2), GRGESP (SEQ ID NO:8), and GRADSP (SEQ ID NO:9) were purchased from Gibco BRL. The inhibition assay was performed with the same protocol as for the cell adhesion assay except that the cells were incubated with the peptides for 15 minutes at room temperature prior to being plated onto the protein-coated wells.

[3] = tested on: αvβ3 integrin present on the melanoma cells; experiment: peptide and antibody inhibition of melanoma cell adhesion to RGD streptavidin mutants; format: cell-based; conditions: human melanoma cells; antibodies at 10 μg/ml
Experimental: Melanoma cell adhesion assays on streptavidin coated polystyrene dishes were performed as described above for endothelial cell adhesion assays, except that DMEM with 0.1% BSA and 10 mM HEPES was used as culture medium and 2×10^5 cells were added to each well. Moαv cells that express high levels of αvβ3 integrin were derived from M21 melanoma cells. Adhesion assays were performed on self assembled monolayers constructed on 24 well tissue culture polystyrene dishes. The dishes were evaporated with about 400A gold, then incubated with a 0.1 mM ethanolic thiol solution of 20% biotinylated alkylthiol (BAT) and 80% polyethylene glycol (PEG) overnight. The wells were rinsed three times with 100% ethanol, blown dry with nitrogen, then incubated with 0.05 mg/ml of streptavidin in PBS (wild type or mutant) at 37° C. for one hour with side to side rocking. The protein solution was then removed, and the wells were rinsed three times with PBS before addition of cells. Antibody inhibition assays were performed essentially identically as for the RGD/RGE inhibition assays. LM609 and control were obtained from Chemicon International, Inc. (Calif.) and were used at 1:1000 dilution (10 μg/ml).

[4] = tested on: Rat aortic endothelial cells; experiment: endothelial cell adhesion assay on streptavidin-coated wells; format: cell-based
Experimental: Rat aortic endothelial cells were cultured in MDCB 131 media (Gibco BRL) with fetal bovine serum and used in the cell adhesion assays. Wild type and RGD streptavidin mutants were incubated in 96 well polystyrene plates overnight at 4° C. at various concentrations and then blocked with 1% BSA in PBS for 1 hour at 37° C. prior to the plating of cells (n=3). Alternatively, biotinylated BSA was incubated in the 96 wells overnight at 4° C., blocked with 1% BSA in PBS for one hour at 37° C., and then streptavidin (wild type or RGD) was incubated in the wells for one hour at 37° C. The protein solution was aspirated and the wells rinsed with sterile PBS before 50,000 cells were plated onto the protein coated wells for one hour at 37° C. The media was removed and the wells were rinsed twice with warm PBS (37° C.). The adherent cells were fixed with 4% paraformaldehyde (PFA) for 5 minutes and stained with 0.5% toluidine blue in 4% PFA for another 5 minutes at room temperature before the wells were rinsed by immersing the plate into a large bowl of tap water. The plate was dried by blotting the inverted plate onto paper towels and the remaining dye in the wells was solubilized with 1% SDS prior to reading the absorbance of the wells with a plate reader at 595 nm.

[5] = off-rate measurement with tritiated biotin; format: binding; conditions: 25° C., PBS pH 7.0
Experimental: Since the mutations occur in a loop opposite from the biotin binding pocket, the rational design of the molecule should obviate any effect of reducing the off-rate, or dissociation constant of streptavidin. This indeed was observed by experimental koff values for the RGD mutants that are within the standard deviation of previously calculated values for wild type streptavidin. Off-rate measurements were performed at 25° C. to quantitatively characterize the biotin affinity of the mutants and compare the results of the binding affinity of wild type streptavidin. Tritiated biotin, “hot” because it is radioactively labeled, was added to samples of the mutant proteins in a PBS solution, pH 7.0, and allowed to equilibrate for 1 to 2 hours. The off-rate reaction was then initiated by the addition of 5 μL of 15 mM “cold” biotin (non-radioactive) in PBS. As the tritiated biotin dissociated from the streptavidin mutants, aliquots were taken at fixed times and scintillation counts were performed to analyze the beta emission of the tritiated biotin. The natural logarithm of the bound tritiated fractions was plotted versus time to attain the off-rate koff, which is calculated from a linear regression of the data points.

absorbance at 595 nm (adhered rat aortic endothelial cells) (absorbance at 595 nm) [1]: 0.3 | coating concentration at saturation of cell adhesion [1]: 100 nM
Molecule: Fibronectin Streptavidin (streptavidin having incorporated therein RGD with flanking amino acids as in fibronectin) (designed binder)

Molecule: GRADSP
inhibitory effect on cell adhesion [2]: no noticeable inhibitory effect

Molecule: GRGDSP [RGD peptide]
inhibitory effect on cell adhesion at 100 μm peptide ([2]; 100 μM peptide): inhibited cell adhesion | inhibitory effect on cell adhesion [2]: inhibited cell adhesion in a dose-dependent manner | inhibition of cell adhesive activity of the RGD mutants [3]: can be inhibited

Molecule: GRGESP
inhibitory effect on cell adhesion [2]: no noticeable inhibitory effect

absorbance at 595 nm (adhered rat aortic endothelial cells) (absorbance at 595 nm) [1]: 0.3 | coating concentration at saturation of cell adhesion [1]: 100 nM
Molecule: Osteopontin Streptavidin (streptavidin having incorporated therein RGD with flanking amino acids as in osteopontin) (designed binder)

Molecule: Wild type streptavidin: naturally occurring tetrameric biotin-binding protein of Streptomyces avidinii, SEQ ID NO:1
cell adhesion (absorbance at 595 nm, visual inspection) [4]: does not display any cell adhesion above control levels | cell adhesion (absorbance at 595 nm, visual inspection) ([4]; listed as wild type): comparable to those for 1% SDS | koff [5]: 3.3±0.1×10^−6 /sec

B1: FN-SA: streptavidin mutant incorporating the RGD sequence and flanking residues from fibronectin, SEQ ID NO:2 (protein)
chain: MRKIVVAAIAVSLTTVSITASASADPSKDSKAQVSAAEAGITGTWYNQLGSTFIVTAGADGALTGTYESAVGNAESRYVLTGRYDSAPGRGDSPGSGTALGWTVAWKNNYRNAHSATTWSGQYVGGAEARINTQWLLTSGTTEANAWKSTLVEHDTFTKVKPSAASIDAAKKAGVNNGNPLDAVQQ
koff [5]: 3.28e-06 s⁻¹

B2: OSTP-SA: streptavidin mutant incorporating the RGD sequence and flanking residues from osteopontin, SEQ ID NO:3 (protein)
chain: MRKIVVAAIAVSLTTVSITASASADPSKDSKAQVSAAEAGITGTWYNQLGSTFIVTAGADGALTGTYESAVGNAESRYVLTGRYDSAPGRGDSVGSGTALGWTVAWKNNYRNAHSATTWSGQYVGGAEARINTQWLLTSGTTEANAWKSTLVEHDTFTKVKPSAASIDAAKKAGVNNGNPLDAVQQ
koff [5]: 3.13e-06 s⁻¹
